This is an account of results in patent publication US20070275943A1, “Method and Composition for Treatment or Prophylaxis of Amyloidosis Disorders” (Acrux DDS Pty Ltd., priority 2003, published 2007).

pKd: −log10 of the molar value.

For data set [1] the following is noted: molar ratio 1:1 (zinc: Aβ); read-out: KD of high affinity zinc binding; cited from earlier work.
Data set [2] can be described thus: Diffusion across excised human epidermis, flow-through diffusion cells, finite dose. Particulars: test spray (5% w/v 1,10-phenanthroline + 5% w/v octyl salicylate in 95% ethanol) vs control without enhancer, 24 h, 5 μL/cm^2, p<0.01.
Protocol: The diffusion experiments were performed using excised human epidermis as the model membrane. These experiments were performed over 24 h with stainless steel, flow-through diffusion cells based on those previously described, (Cooper, E. R. J. Pharm. Sci. 1984, 73, 1153-1156.) except that the cell was modified to increase the diffusional area to 1.0 cm^2. The formulations were applied using a finite dose technique (Franz, T. J. Curr. Probl. Dermatol. 1978, 7, 58-68.) to mimic clinical dosing conditions at an applied dose volume of 5 μL/cm^2. A piece of stainless steel wire mesh was placed directly below the skin in the receptor chamber of the diffusion cell to maintain a turbulent flow of receptor solution below the skin. The diffusion cells were maintained at a flow rate of approximately 1.0 ml/cm^2/h by a microcassette peristaltic pump (Watson Marlow 505S, UK). The cells were kept at 32±0.5° C. by a heater bar and the samples are collected into appropriately sized plastic vials on an automated fraction collector (Isco Retriever II, Lincoln, Nebr.) at specified intervals. […]
Samples were analysed for 1,10-phenanthroline directly by RP-HPLC using the following conditions; Column—Waters Symmetry C18 column (3.9×150 mm) with a 5 μm support size; Mobile phase—20% Acetonitrile buffered with 0.01 M KH2PO4, pH=2.80; Flow rate—0.9 mL/min; Absorbance—235 nm; and Injection volume—20 μL.

Usually pKd stands for −log10 of the Kd, conventionally taken in molar units. Turning to “Aβ: polypeptide, major component of the amyloid deposits in Alzheimer's disease”, in data set [1], the pKd was 6.97.
Regarding `c1cnc2c(c1)ccc1cccnc12` [1,10-phenanthroline], the “increase in the transdermal delivery of 1,10-phenanthroline across the skin” value in data set [2] stood at 1.3 fold.
